The source made the active and inactive calls. The calls are words filed in the database; no cut-off is given here.
System: P388
Assay: Compound was tested for antileukemic activity against murine P388 lymphocytic leukemia; Inactive
Format: functional, cell-based
Conditions: Mus musculus

| SMILES | Activity |
| --- | --- |
| CNC(=O)OCc1nc(-c2ccccc2)sc1COC(=O)NC | inactive |
| CNC(=O)OCc1c(COC(=O)NC)c(-c2ccc(C)cc2)n(C)c1C | inactive |
| CNC(=O)OCc1onc(-c2ccccc2)c1COC(=O)NC | inactive |
| CNC(=O)OCc1c(COC(=O)NC)c(C)n(-c2ccccc2)c1C | inactive |
| CNC(=O)OCc1nnn(-c2ccccc2)c1COC(=O)NC | inactive |
| CNC(=O)OCc1nc(-c2ccccc2)oc1COC(=O)NC | inactive |
| CNC(=O)OCc1snc(-c2ccccc2)c1COC(=O)NC | inactive |
| CNC(=O)OCc1c(C)sc(-c2ccccc2)c1COC(=O)NC | inactive |
| CNC(=O)OCc1cn(-c2ccc(Cl)c(Cl)c2)nc1COC(=O)NC | inactive |

From ChEMBL document CHEMBL1122528, “Synthesis and evaluation of furan, thiophene, and azole bis[(carbamoyloxy)methyl] derivatives as potential antineoplastic agents” (J Med Chem, 1984)
